According to publication PMC8704606, “The Artemiside-Artemisox-Artemisone-M1 Tetrad: Efficacies against Blood Stage P. falciparum Parasites, DMPK Properties, and the Case for Artemiside” (Pharmaceutics, 2021):
Read-outs that look alike come from different tables or passages of the source.

How the values were obtained:
[1] = tested on: late-stage (LG) Pf NF54 gametocytes; set-up: method as in PMID 29866868; conditions: late-stage gametocytes >90% stages IV-V; dose responses obtained at 72 h; ± SEM; cited from earlier work
[2] = tested on: asexual blood stages of Pf K1 (drug resistant); set-up: method as in PMID 29866868, PMID 31998692; conditions: cited from earlier work
[3] = tested on: type II tachyzoites (PRU-Luc-GFP); conditions: sc 10 mg/kg/d for 8 days; cited from earlier work
[4] = cited from earlier work
[5] = Cytotoxicity (LDH assay) against HepG2 cells; type: cell-based; conditions: human, HepG2 cells (hepatocellular carcinoma)
Experimental: Cytotoxicity against mammalian hepatocellular carcinoma cells (HepG2 cells) was determined using the lactate dehydrogenase assay (LDH, Biovision Inc., Milpitas, CA, USA). […] Compound working solutions were prepared from 10 mM stock solutions (100% DMSO) in complete DMEM to a final DMSO (Sigma-Aldrich) conc. of <0.1% (vol/vol). […] Data analysis was performed using GraphPad Prism (version 6) software.

[6] = tested on: Toxoplasma gondii (Tg); set-up: method as in PMID 19635951; conditions: read-out: EC50 against Tg in vitro; cited from earlier work
[7] = tested on: P. falciparum asexual blood stage artemisinin-resistant clone ARC08-22 (4G) carrying the PfKI3 C580Y mutation; set-up: method as in ref S3; conditions: ref S3, cited from earlier work
[8] = Pharmacokinetics and metabolism after iv and po administration; type: in vivo; conditions: for half-life: mean ± SD, read-out: t½ (converted); for MRT last: read-out: MRT0-last; for AUC(0-t): up to 7 h
Experimental: The plasma concentration-time profiles of the parent compounds and metabolites after administration iv and po to male C57/BL6 mice are presented in Figure 2, Figure 3 and Figure 4. Artemiside was quantifiable up to 24 h in all mice dosed iv and up to 7 h po (lower limit of quantitation LLOQ = 1.6 ng/mL or 0.004 μM) (Figure 2). […] For both artemiside and artemisox, the metabolite artemisone was quantifiable up to 3 h in both the po and iv groups (Figure 2 and Figure 3). Thereby it is confirmed that artemiside is rapidly converted via artemisox into artemisone. Artemisone itself was quantifiable up to three hours post dose (Figure 4). The mean circulating concentrations for the compounds and their metabolites are presented in Table S3a–f in the Supplementary Material 1. The metabolite M1 was also detected upon administration of artemiside, artemisox, and artemisone, but it was not quantified here; chromatograms indicating the presence of M1 are illustrated in Figure S3a–c in the Supplementary Material 1. In addition, the plasma concentration-time curves for artemiside and its metabolites artemisone and M1 following iv and po dosing in the same murine model are presented and discussed in detail elsewhere (cf. Figure 4 in reference).
All work was conducted with prior approval of the animal ethics committee of the University of Cape Town in accordance with the South African National Standards for the Care and Use of Animals for Scientific Purposes and guidelines from the South African Department of Health. The requirements and methods for the pharmacokinetics in vivo involving po and iv drug administration, sample extraction, analyses of samples by LC-MS/MS, and data analyses are described elsewhere. For the animal experiments and formulations, the compounds were dissolved in a 10:60:30 mixture of N,N-dimethylacetamide-polypropylene glycol-polyethylene glycol for intravenous dosing (iv) at 5 mg/kg. For the oral dose (po), compounds were individually dosed as a suspension in 0.5% (w/v) hydroxypropylmethylcellulose in water with 0.2% Tween80 at 50 mg/kg to male C57/BL6 mice (n = 3 for each group). For PK sampling, blood samples were collected at predetermined times (0.08, 0.25, 0.5, 1, 3, 5, 7, and 24 h) for both po and iv dosing via tail bleeding into heparinized tubes, centrifuged, and the plasma samples were stored at −80 °C until extraction. For preparation of samples, the frozen plasma samples were thawed and 15 μL was extracted by liquid–liquid extraction using a universal buffer (pH8) containing 10 ng/mL of the internal standard and ethyl acetate, and the extract was vortexed and centrifuged. Calibration standards and quality controls were extracted following the same procedure. Supernatants were dried down, reconstituted, and injected onto the column for LC-MS/MS analysis using an AB SCIEX 5500 QTRAP instrument coupled to an Agilent 1260 HPLC detection system as previously described.

[9] = tested on: Toxoplasma gondii (Tg); set-up: method as in PMID 19635951; conditions: IFN-γ−/− female mice, 10 mg/kg/d for 8 days after cessation of sulfadiazine; cited from earlier work
[10] = tested on: P. falciparum W2; set-up: method as in ref S3; conditions: [3H]-hypoxanthine assay; ref S3; cited from earlier work
[11] = male, C57/BL6, mouse, plasma, iv 5 mg/kg, parent drug
[12] = male, C57/BL6, mouse, plasma, po 50 mg/kg, parent drug

SMILES: C[C@H]1[C@H](N2CCSCC2)O[C@@H]2O[C@@]3(C)CC[C@H]4[C@H](C)CC[C@@H]1[C@@]24OO3 [Artemiside 5, Artemiside]
- IC50 [1]: 1.5 ± 0.5 nM
- IC50 ([2]; asexual blood stage Pf K1, multidrug resistant, SYBR Green I, ± SEM): 1.6 ± 0.4 nM
- RI (resistance index) = IC50 K1/IC50 NF54 [2]: 1.47
- mice surviving the infection, acute phase [3]: 60%
- neurotoxicity in vivo, effects observed ([4]; 10 mg/kg/d for 14 days by gavage in sesame oil): no effects were observed
- neurotoxicity in vivo, effects observed ([4]; 50 mg/kg/d for 14 days by gavage in sesame oil): neurotoxic sequelae including body weight loss, reduced motility, uncoordinated gait, and piloerection
- IC50 at 24 h [5]: > 50000 nM
- EC50 [6]: 108 nM
- IC50 ([7]; 48 h life cycle, PfKI3 C580Y): 2.43 nM
- IC90 ([7]; 48 h life cycle, PfKI3 C580Y): 4.85 nM
- RI = IC50 for ARC08-22(4G)/IC50 for W2 [7]: 1.1
- Mean po circulating concentration ([8]; 24 h after po 50 mg/kg artemiside 5): blq
- quantifiable/detectable in plasma up to ([8]; iv group, parent drug, LLOQ 1.6 ng/mL or 0.004 μM for artemiside): up to 24 h
- concentration at 0.08 h ([8]; male, C57/BL6, mouse, plasma, iv, 5 mg/kg, 0.08 h after iv 5 mg/kg artemiside 5, read-out: Mean iv circulating concentration): 6240 nM
- concentration at 0.25 h ([8]; male, C57/BL6, mouse, plasma, iv, 5 mg/kg, 0.25 h after iv 5 mg/kg artemiside 5, read-out: Mean iv circulating concentration): 3560 nM
- concentration at 0.5 h ([8]; male, C57/BL6, mouse, plasma, iv, 5 mg/kg, 0.5 h after iv 5 mg/kg artemiside 5, read-out: Mean iv circulating concentration): 1710 nM
- concentration at 1 h ([8]; male, C57/BL6, mouse, plasma, iv, 5 mg/kg, 1 h after iv 5 mg/kg artemiside 5, read-out: Mean iv circulating concentration): 930 nM
- concentration at 3 h ([8]; male, C57/BL6, mouse, plasma, iv, 5 mg/kg, 3 h after iv 5 mg/kg artemiside 5, read-out: Mean iv circulating concentration): 180 nM
- concentration at 5 h ([8]; male, C57/BL6, mouse, plasma, iv, 5 mg/kg, 5 h after iv 5 mg/kg artemiside 5, read-out: Mean iv circulating concentration): 86 nM
- concentration at 7 h ([8]; male, C57/BL6, mouse, plasma, iv, 5 mg/kg, 7 h after iv 5 mg/kg artemiside 5, read-out: Mean iv circulating concentration): 37 nM
- concentration at 24 h ([8]; male, C57/BL6, mouse, plasma, iv, 5 mg/kg, 24 h after iv 5 mg/kg artemiside 5, read-out: Mean iv circulating concentration): 8 nM
- half-life ([8]; male, C57/BL6, mouse, plasma, iv, 5 mg/kg, iv 5 mg/kg, parent drug): 1.2 ± 0.1 h
- concentration at 0.08 h ([8]; male, C57/BL6, mouse, plasma, po, 50 mg/kg, 0.08 h after po 50 mg/kg artemiside 5, read-out: Mean po circulating concentration): 85 nM
- concentration at 0.25 h ([8]; male, C57/BL6, mouse, plasma, po, 50 mg/kg, 0.25 h after po 50 mg/kg artemiside 5, read-out: Mean po circulating concentration): 109 nM
- concentration at 0.5 h ([8]; male, C57/BL6, mouse, plasma, po, 50 mg/kg, 0.5 h after po 50 mg/kg artemiside 5, read-out: Mean po circulating concentration): 135 nM
- concentration at 1 h ([8]; male, C57/BL6, mouse, plasma, po, 50 mg/kg, 1 h after po 50 mg/kg artemiside 5, read-out: Mean po circulating concentration): 119 nM
- concentration at 3 h ([8]; male, C57/BL6, mouse, plasma, po, 50 mg/kg, 3 h after po 50 mg/kg artemiside 5, read-out: Mean po circulating concentration): 58 nM
- concentration at 5 h ([8]; male, C57/BL6, mouse, plasma, po, 50 mg/kg, 5 h after po 50 mg/kg artemiside 5, read-out: Mean po circulating concentration): 12 nM
- concentration at 7 h ([8]; male, C57/BL6, mouse, plasma, po, 50 mg/kg, 7 h after po 50 mg/kg artemiside 5, read-out: Mean po circulating concentration): 6 nM
- half-life ([8]; male, C57/BL6, mouse, plasma, po, 50 mg/kg, po 50 mg/kg, parent drug): 1.4 ± 0.04 h
- clearance ([8]; male, C57/BL6, mouse, plasma, iv 5 mg/kg): 58.3 mL/min/kg
- AUC(0-inf) [8, 11]: 3.9 ± 0.4 µM·h
- MRT last ([8]; male, C57/BL6, mouse, plasma, iv 5 mg/kg, parent drug, 0-last up to 7 h): 1 ± 0.1 h
- AUC(0-t) [8, 11]: 3.8 ± 0.5 µM·h
- Vd ([8]; male, C57/BL6, mouse, plasma, iv 5 mg/kg, read-out: Vss): 4.1 ± 0.5 L/kg
- Cmax [8, 12]: 130 ± 10 nM
- MRT last [8, 12]: 1.9 ± 0.1 h
- AUC(0-t) [8, 12]: 0.36 ± 0.06 µM·h
- MAT (mean absorption time = MRTpo–MRTiv) ([8]; po 50 mg/kg): 0.92 ± 0.20 h
- quantifiable/detectable in plasma up to ([8]; po group, parent drug): up to 7 h
- mice with prolonged survival, reactivation stage [9]: 80%
- IC50 [10]: 2.21 nM
- IC90 [10]: 4.28 nM
